Data reported in US8012466B2, “Immunogenic compositions for activating γδ T cells” (priority 2008, dated 2011).
“Also recorded” adds a separate entry of the source.

Columns and labels:
[1] = system: Vγ2Vδ2 T cells; experiment: In vitro HMBPP response of rhesus monkey PBMC; type: cell-based; conditions: PBMC stimulated with 100 nM HMBPP
Excerpt: FIG. 7. Characteristics of rhesus monkey Vγ2Vδ2 T cells. (A). Large in vitro HMBPP responses by Vγ2Vδ2 T cells from most rhesus monkeys. […] (B). Uniform memory subset distribution of rhesus monkey Vγ2Vδ2 T cells. PBMC from 22 monkeys were stained for Vδ2, […], and […]. Vδ2^+ cells were divided in 4 groups based on their expression of CD28 and CD27.
Memory subset distribution and HMBPP response of rhesus monkey Vγ2Vδ2 T cells—In preparation for in vivo immunization of rhesus monkey, we screened 33 monkeys for their ability to respond to HMBPP in vitro, γδ T cells levels, V gene expression, and memory subset distribution. […] Like human Vγ2Vδ2 T cells, monkey Vγ2Vδ2 T cells also could be divided into 4 subsets based on expression of CD28 and CD27 (TEarly=central memory=CD28^+27^+, TEarly CD27−=CD28^+27^−, TIntermediate=CD28^−27^+, and TLate CD45RA+=CD28^−27^−). However, unlike human donors, there were very few monkeys with a predominance of the TLate RA subset. Moreover, whereas Vγ2Vδ2 T cells constituted 73% of human adult γδ T cells, Vγ2Vδ2 T cells constituted only 29% of monkey γδ T cells consistent with our earlier study. […]

[2] = system: Vγ2Vδ2 T cells; experiment: Immunization of rhesus monkeys with zoledronate and HMBPP plus sc IL-2; type: in vivo, rhesus monkey; conditions: for in vitro reactivity of PBMC to HMBPP after immunization: PBMC before and ~2 weeks after each immunization, cultured with HMBPP 9 days; for outcome of repeated immunization in vivo: zoledronate 0.06 mg/kg sc or iv twice, then HMBPP 70 mg/kg iv, sc IL-2
[3] = system: Vγ2Vδ2 TCR transfectant, DBS43; experiment: IL-2 release by Vγ2Vδ2 TCR transfectant DBS43; type: cell-based; conditions: unpublished data
[4] = system: Vγ9/Vδ2; conditions: cited from earlier work

Row | Compound | monkeys with expansion to >40% [1] | in vitro reactivity of PBMC to HMBPP after immunization [2] | outcome of repeated immunization in vivo [2] | IL-2 release [3] | return of expansion to baseline ([4]; cynomolgus monkey, in vivo) [days] | expansion of Vγ9/Vδ2 ([4]; first and successive infusions)
1 | C/C(=C\COP(=O)(O)OP(=O)(O)O)CO [HMBPP, (E)-4-hydroxy-3-methyl-but-2-enyl pyrophosphate] | 32/33 | leads to loss of in vitro reactivity to HMBPP | leads to immune exhaustion | release IL-2 in response to HMBPP | – | –
2 | CC(O)(CBr)CCOP(=O)(O)OP(=O)(O)O (centres unmarked) [BrHPP, bromohydrin pyrophosphate] | – | – | – | – | 10 to 15 | transiently expand; also recorded: less vigorous expansions
3 | O=P(O)(O)C(O)(Cn1ccnc1)P(=O)(O)O [zoledronate] | – | leads to loss of in vitro reactivity to HMBPP | loss of in vivo (FIG. 8) and in vitro proliferation by Vγ2Vδ2 T cells to antigenic stimulation; also recorded: leads to immune exhaustion | – | – | –
